The values that follow come from patent US8076332B2, “N- (2-aminophenyl) benzamide derivative having urea structure” (Santen Pharmaceutical Co., Ltd., priority 2006, dated 2011).

Experiment [1] has as its system male Japanese White rabbits. Briefly: Test for evaluation of intraocular pressure-lowering effect (intracameral administration). In kind it is in vivo. The following applies: 20 μL of 1 mM administration liquid to one eye, at 9 hours after administering, versus vehicle control group, 6 cases per group. Here is the method: 2. Test for Evaluation of Intraocular Pressure-Lowering Effect
In order to evaluate an intraocular pressure-lowering effect of the present compounds, a test for evaluation of intraocular pressure-lowering effect of intracameral administration of a drug using male Japanese White rabbits was performed.
A test compound was dissolved or suspended in physiological saline containing 0.5% dimethyl sulfoxide, whereby a 1 mM test compound administration liquid was prepared.
One drop of 0.4% oxybuprocaine hydrochloride eye drop was instilled into both eyes of each male Japanese White rabbit to achieve local anesthesia, and thereafter, the intraocular pressure was measured using an applanation tonometer. Then, by using a syringe fitted with a 30-gauge needle, the test compound administration liquid (20 μL) was intracamerally administered to one eye. As a control, 20 μL of the vehicle (physiological saline containing 0.5% dimethyl sulfoxide) for the test compound was intracamerally administered. After the lapse of a certain period of time from the administration of the test compound or vehicle, one drop of 0.4% oxybuprocaine hydrochloride eye drop was instilled into the administered eye to achieve local anesthesia, and thereafter, the intraocular pressure was measured using an applanation tonometer.
The intraocular pressure-lowering effect of each test compound was evaluated by calculating an intraocular pressure reduction rate. The intraocular pressure reduction rate (%) was calculated using the following equation. (Intraocular Pressure Reduction rate(%))=100×(Average Value of Intraocular Pressure of Control Group)−(Average Value of Intraocular Pressure of Each Test Compound Administration Group)/(Average Value of Intraocular Pressure of Control Group) (Test Results)
As an example of the test results, the intraocular pressure reduction rates of the respective test compound administration groups at 9 hours after administering the respective test compounds (Compound 1-59, Compound 1-80, and Compound 2-2) are shown in Table II (one group consisting of 6 cases).

In experiment [2] the test system is human trabecular meshwork cell line (TM-1 cells). Put plainly: Test for evaluation of effect of morphological change on trabecular meshwork cells (cell shape index, CSI). In kind it is cell-based. The following applies: final concentration 10 μM, incubation 24 hours, CSI=4π×(Cell Area)/(Cell Perimeter)^2, average per group, Control 0.730. How it is done: 1. Test for Evaluation of Effect of Morphological Change on Trabecular Meshwork Cells
As a method for evaluating a cellular morphological change, an evaluation system using the cell shape index (hereinafter referred to as “CSI”) as an index has been reported in The Journal of Clinical Investigation, 103, 1141-1150 (1999). Therefore, according to the method described in the above document, an effect of morphological change of the present compounds on trabecular meshwork cells was evaluated.
A human trabecular meshwork cell line (hereinafter referred to as “TM-1 cells”) reported in Investigative Opthalmology & Visual Science, 43, 151-161 (2002) was used.
Culture medium 1: A reagent was prepared by adding fetal bovine serum (10%), L-glutamine (2 mM), amphotericin B (2.5 μg/mL), and gentamicin (25 μg/mL) to Dulbecco's modified Eagle medium (hereinafter referred to as “D-MEM”).
Culture medium 2: Fetal bovine serum (3%), L-glutamine (2 mM), amphotericin B (2.5 μg/mL), and gentamicin (25 μg/mL) were added to D-MEM.
Cell staining liquid: A mixed liquid of Calcein-AM (16 μM) and Hoechst 33342 (40 μM) was prepared by diluting a Calcein-AM solution (cytoplasmic staining reagent, manufactured by Dojindo Laboratories) and a Hoechst 33342 solution (nuclear staining reagent, manufactured by Dojindo Laboratories) with D-MEM containing L-glutamine (2 mM), amphotericin B (2.5 μg/mL), and gentamicin (25 μg/mL).
TM-1 cells subcultured at 37° C. in a 8% carbon dioxide gas atmosphere were treated with a trypsin/EDTA solution (0.05% trypsin and 0.53 mM tetrasodium ethylenediaminetetraacetate) at 24 hours before performing a drug treatment mentioned below and seeded on a 96-well culture plate. The culture medium 1 was used for the subculture of the cells. The culture medium 2 was used for the cell culture after seeding the cells on the plate.
A test compound was dissolved in dimethyl sulfoxide, whereby a 5 mM solution was prepared. Then, the resulting solution was diluted with the culture medium 2, whereby a 200 μM test compound solution was prepared.
It has been reported that Y-27632 which is a Rho kinase inhibitor induces a morphological change in trabecular meshwork cells in Investigative Ophthalmology & Visual Science, 42, 137-144 (2001). Therefore, Y-27632 (produced according to the method described in WO 90/05723) was used as a positive control, and dissolved in dimethyl sulfoxide in the same manner as the test compound, whereby a 5 mM solution was prepared, and then, the resulting solution was diluted with the culture medium 2, whereby a 200 μM positive control compound solution was prepared.
1) To a 96-well culture plate, a solution of TM-1 cells adjusted to a cell density of […] was added in an amount of 95 μL (1.5×10^4 cells) per well.
2) Incubation was performed at 37° C. in a 8% carbon dioxide gas atmosphere for 24 hours.
3) The test compound solution or positive control compound solution was added in an amount of 5 μL per well (the final concentration of the test compound or positive control compound was 10 μM). As a control, the culture medium 2 containing dimethyl sulfoxide (4%) was added in an amount of 5 μL per well.
4) Incubation was performed at 37° C. in a 8% carbon dioxide gas atmosphere for 24 hours.
5) The cell staining liquid was added in an amount of 10 μL per well.
6) Incubation was performed at 37° C. in a 8% carbon dioxide gas atmosphere for 1 hour to stain the cells.
7) A 37% formaldehyde solution was added in an amount of 10 μL per well.
8) Incubation was performed at room temperature for 1 hour to fix the cells.
9) Washing with phosphate-buffered saline was performed.
10) Using Array Scan Vti HCS reader (manufactured by Cellomics), images of stained cells magnified with a 20 times objective lens were captured in 80 fields (10 fields×8 wells) per test compound addition group.
11) CSI was calculated for each cell and an average value was obtained for each test compound addition group. […]

Turning to `Nc1ccccc1NC(=O)c1ccc(CN(CCCN2CCOCC2)C(=O)NCCc2ccc3c(c2)OCO3)cc1` [Compound 1-59, N-(2-Aminophenyl)-4-[3-[2-(benzo[1,3]dioxol-5-yl)ethyl]-1-[3-(morpholin-4-yl)propyl]ureidomethyl]benz-amide], in experiment [1], the “Intraocular Pressure Reduction Rate (%)” value worked out at 19%. In experiment [2], this molecule had a CSI of 0.571.
In turn, `COc1ccccc1NC(=O)N(CCCN(C)C)Cc1ccc(C(=O)Nc2ccccc2N)cc1` [Compound 2-3, N-(2-Aminophenyl)-4-[1-(3-dimethylaminopropyl)-3-(2-methoxyphenyl)ureidomethyl]benzamide] returned a CSI in experiment [2] of 0.618.
On to `CN1CCN(CCN(Cc2ccc(C(=O)Nc3ccccc3N)cc2)C(=O)Nc2ccc3c(c2)OCCO3)CC1` [Compound 1-94, N-(2-Aminophenyl)-4-[3-(2,3-dihydrobenzo[1,4]dioxin-6-yl)-1-[2-(4-methylpiper-azin-1-yl)ethyl]ureidomethyl] benzamide], for which, in experiment [2], the CSI is listed as 0.595.
On to `CN(C)CCN(Cc1ccc(C(=O)Nc2ccccc2N)cc1)C(=O)NCc1ccccc1` [Compound 1-5, N-(2-Aminophenyl)-4-[3-benzyl-1-(2-dimethylaminoethyl)ureidomethyl]benzamide], for which the CSI in experiment [2] came out at 0.636.
As to `CN(C)CCCN(Cc1ccc(C(=O)Nc2ccccc2N)cc1)C(=O)Nc1ccc(F)c(F)c1` [Compound 2-2, N-(2-Aminophenyl)-4-[3-(3,4-difluorophenyl)-1-(3-dimethylaminopropyl)ureidomethyl]benzamide], the “Intraocular Pressure Reduction Rate (%)” value in experiment [1] is 13%. The CSI in experiment [2] was found to be 0.585.
As for `CN(C)CCCCN(Cc1ccc(C(=O)Nc2ccccc2N)cc1)C(=O)Nc1ccc(N(C)C)cc1` [Compound 1-53, N-(2-Aminophenyl)-4-[1-(4-dimethylaminobutyl)-3-(4-dimethylaminoiphenyl)ureido-methyl]benzamide], in experiment [2], the CSI came to 0.538.
Molecule `CCN1CCCC1CN(Cc1ccc(C(=O)Nc2ccccc2N)cc1)C(=O)Nc1ccc2c(c1)OCCO2` (centres unmarked) [Compound 1-50, N-(2-Aminophenyl)-4-[3-(2,3-dihydrobenzo[1,4]dioxin-6-yl)-1-(1-ethylpyrrolidin-2-ylmethyl)ureidomethyl] benzamide] returned a CSI in experiment [2] of 0.617.
Turning to `Nc1ccc(NC(=O)N(CCCN2CCOCC2)Cc2ccc(C(=O)Nc3ccccc3N)cc2)cc1` [Compound 1-66, N-(2-Aminophenyl)-4-[3-(4-aminophenyl)-1-[3-(mor-pholin-4-yl)propyl]ureidomethyl] benzamide], the CSI in experiment [2] is on record as 0.624.
On the same count and under the same terms, with `COc1ccc(N)c(NC(=O)c2ccc(CN(CCN(C)C)C(=O)Nc3ccc4c(c3)CCC4)cc2)c1` [Compound 1-107, N-(2-Amino-5-methoxyphenyl)-4-[1-(2-dimethylamino-ethyl)-3-(indan-5-yl)ureod-methyl]benzamide] the figure was 0.663.
On to `CN(C)CCN(Cc1ccc(C(=O)Nc2ccccc2N)cc1)C(=O)Nc1ccc2c(c1)OCCO2` [Compound 1-80, N-(2-Aminophenyl)-4-[3-(2,3-dihydrobenzo[1,4]dioxin-6-yl)-1-(2-dimethylamino-ethyl)ureidomethyl]benzamide], for which, in experiment [1], the “Intraocular Pressure Reduction Rate (%)” value was found to be 18%. The same molecule yielded a CSI in experiment [2] of 0.543.
Regarding `Nc1ccccc1NC(=O)c1ccc(CN(CC(O)CO)C(=O)Nc2ccc3c(c2)CCC3)cc1` (centres unmarked) [Compound 1-16, N-(2-Aminophenyl)-4-[1-(2,3-dihydroxypropyl)-3-(indan-5-yl)ureidomethyl]benz-amide], the CSI in experiment [2] was found to be 0.616.
As to `Nc1ccccc1NC(=O)c1ccc(CN(CCCN2CCOCC2)C(=O)Nc2ncc([N+](=O)[O-])s2)cc1` [Compound 1-165, N-(2-Aminophenyl)-4-[1-(3-(morpholin-4-yl)propyl]-3-(5-nitrothiazol-2-yl)ureido-methyl]benzamide], the CSI in experiment [2] turned out to be 0.578.
For the molecule `CN(C)CCN(Cc1ccc(C(=O)Nc2ccccc2N)cc1)C(=O)NCCc1ccccc1` [Compound 1-4, N-(2-Aminophenyl)-4-[1-(2-dimethylaminoethyl)-3-phenethylureidomethyl]benz-amide], in experiment [2], the CSI is given as 0.545.
`CN(C)CC(C)(C)CN(Cc1ccc(C(=O)Nc2ccccc2N)cc1)C(=O)Nc1ccc(CC#N)cc1` [Compound 1-38, N-(2-Aminophenyl)-4-[3-(4-cyanomethylphenyl)-1-(3-dimethylamino-2,2-dimethyl-propyl)ureidomethyl]benz-amide] registered a CSI in experiment [2] of 0.616.
